In patent US20070032513A1, “Quinazoline derivatives” (priority 2003, published 2007) one finds IC50 and melting point data, which are given here for 4 compounds.

In general, IC50 refers to the concentration that inhibits the measured activity by half. In general, melting point refers to the temperature, or range, at which the solid turns liquid.

For one data set, the target named is T1, EGFR tyrosine kinase (Homo sapiens, UniProt P00533).
T1 construct: Recombinant intracellular fragments of EGFR, erbB2 and erbB4; made in house; host or cells: baculovirus/Sf21 insect cells (cleared lysate used)
T1 sequence (P00533 669-1210 limits assumed): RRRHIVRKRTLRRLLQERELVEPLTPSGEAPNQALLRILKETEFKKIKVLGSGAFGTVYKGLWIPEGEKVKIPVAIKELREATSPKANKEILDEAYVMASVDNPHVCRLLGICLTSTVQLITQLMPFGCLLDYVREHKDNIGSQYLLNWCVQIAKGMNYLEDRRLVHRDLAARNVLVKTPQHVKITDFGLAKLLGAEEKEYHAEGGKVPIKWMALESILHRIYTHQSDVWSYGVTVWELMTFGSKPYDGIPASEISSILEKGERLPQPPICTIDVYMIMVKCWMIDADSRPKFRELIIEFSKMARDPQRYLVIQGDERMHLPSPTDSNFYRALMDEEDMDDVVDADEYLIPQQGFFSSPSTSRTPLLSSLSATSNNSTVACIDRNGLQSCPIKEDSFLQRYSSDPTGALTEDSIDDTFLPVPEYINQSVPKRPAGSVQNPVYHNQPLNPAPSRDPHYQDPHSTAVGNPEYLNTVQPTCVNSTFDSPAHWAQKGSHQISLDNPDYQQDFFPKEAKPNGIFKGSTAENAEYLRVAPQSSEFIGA
The data set is described as follows: Protein tyrosine kinase phosphorylation assay, Test (a). To be noted: recombinant intracellular fragment, ATP at Km concentration; read-out: IC50 (nM) Test (a) (Inhibition of EGFR tyrosine kinase protein phosphorylation). Format: biochemical. The protocol:
This test measures the ability of a test compound to inhibit the phosphorylation of a tyrosine containing polypeptide substrate by EGFR, erbB2 or erbB4 tyrosine kinase enzyme.
Recombinant intracellular fragments of EGFR, erbB2 and erbB4 (accession numbers X00588, X03363 and L07868 respectively) were cloned and expressed in the baculovirus/Sf21 system. Lysates were prepared from these cells by treatment with ice-cold lysis buffer (20 mM N-2-hydroxyethylpiperizine-N′-2-ethanesulfonic acid (HEPES) pH7.5, 150 mM NaCl, 10% glycerol, 1% Triton X-100, 1.5 mM MgCl2, 1 mM ethylene glycol-bis(β-aminoethyl ether) N′,N′,N′,N′-tetraacetic acid (EGTA), plus protease inhibitors and then cleared by centrifugation.
Constitutive kinase activity of these recombinant proteins was determined by their ability to phosphorylate a synthetic peptide (made up of a random co-polymer of Glutamic Acid, Alanine and Tyrosine in the ratio of 6:3:1). Specifically, Maxisorb™ 96-well immunoplates were coated with synthetic peptide (0.2 μg of peptide in a 200 μl phosphate buffered saline (PBS) solution and incubated at 4° C. overnight). Plates were washed in 50 mM HEPES pH 7.4 at room temperature to remove any excess unbound synthetic peptide. EGFR or erbB2 activities were assessed by incubation in peptide coated plates for 20 minutes at room temperature in 100 mM HEPES pH 7.4 at room temperature, adenosine trisphosphate (ATP) at Km concentration for the respective enzyme, 10 mM MnCl2, 0.1 mM Na3VO4, 0.2 mM DL-dithiothreitol (DIT), 0.1% Triton X-100 with test compound in DMSO (final concentration of 2.5%). Reactions were terminated by the removal of the liquid components of the assay followed by washing of the plates with PBS-T (phosphate buffered saline with 0.5% Tween 20).
The immobilised phospho-peptide product of the reaction was detected by immunological methods. Firstly, plates were incubated for 90 minutes at room temperature with anti-phosphotyrosine primary antibodies that were raised in the mouse (4G10 from Upstate Biotechnology). Following extensive washing, plates were treated with Horseradish Peroxidase (HRP) conjugated sheep anti-mouse secondary antibody (NXA931 from Amersham) for 60 minutes at room temperature. After further washing, HRP activity in each well of the plate was measured colorimetrically using 22′-Azino-di-[3-ethylbenzthiazoline sulfonate (6)] diammonium salt crystals (ABTS™ from Roche) as a substrate.
Quantification of colour development and thus enzyme activity was achieved by the measurement of absorbance at 405 nm on a Molecular Devices ThermoMax microplate reader. Kinase inhibition for a given compound was expressed as an IC50 value. […] The range of phosphorylation was calculated from the positive (vehicle plus ATP) and negative (vehicle minus ATP) control values.

For another data set, the system named is KB cells. The data set is described as follows: EGFR driven KB cell proliferation assay, Test (b). To be noted: Homo sapiens, 96 h, EGF 1 ng/ml, incubation for 4 days, MTT. The format is cell-based. How it is done: This assay measures the ability of a test compound to inhibit the proliferation of KB cells (human naso-pharangeal carcinoma obtained from the American Type Culture Collection (ATCC)).
KB cells were cultured in Dulbecco's modified Eagle's medium (DMEM) containing 10% foetal calf serum, 2 mM glutamine and non-essential amino acids at 37° C. in a 7.5% CO2 air incubator. Cells were harvested from the stock flasks using Trypsin/ethylaminediaminetetraacetic acid EDTA). Cell density was measured using a haemocytometer and viability was calculated using trypan blue solution before being seeded at a density of 1.25×10^3 cells per well of a 96 well plate in DMEM containing 2.5% charcoal stripped serum, 1 mM glutamine and non-essential amino acids at 37° C. in 7.5% CO2 and allowed to settle for 4 hours.
Following adhesion to the plate, the cells are treated with or without EGF (final concentration of 1 ng/ml) and with or without compound at a range of concentrations in dimethylsulfoxide (DMSO) (0.1% final) before incubation for 4 days. Following the incubation period, cell numbers were determined by addition of 50 μl of 3-(4,5-Dimethylthiazol-2-yl)-2,5-diphenyltetrazolium bromide (MTT) (stock 5 mg/ml) for 2 hours. MIT solution was then tipped off, the plate gently tapped dry and the cells dissolved upon the addition of 100 μl of DMSO.
Absorbance of the solubilised cells was read at 540 nm using a Molecular Devices ThermoMax microplate reader. Inhibition of proliferation was expressed as an IC50 value. […] The range of proliferation was calculated from the positive (vehicle plus EGF) and negative (vehicle minus EGF) control values.

The structures appear in SMILES notation.

For the compound `COc1cc2c(Nc3cccc(Cl)c3F)ncnc2cc1OC1CCN(C(=O)C2CCC(=O)N2)CC1` (stereo not drawn) [6[5], 5-{[4-({4-[3-chloro-2-fluoroanilino]-6-methoxyquinazolin-7-yl}oxy)piperidin-1-yl]carbonyl}pyrrolidin-2-one], the IC50 amounted to 41 nM at EGFR tyrosine kinase and 397 nM in the data set with KB cells.
In the same order, the values of `COc1cc2c(Nc3cccc(Cl)c3F)ncnc2cc1OC1CN(C(=O)[C@H](C)O)C1` [Example 3] are 17 nM and 71 nM.
For `COc1cc2c(Nc3cccc(Cl)c3F)ncnc2cc1OC1CN(C(=O)[C@@H](C)O)C1` [Example 4, (2R)-1-[3-({4-[3-Chloro-2-fluoroanilino]-6-methoxyquinazolin-7-yl}oxy)azetidin-1-yl]-1-oxopropan-2-ol] the same measures were 8 nM and 48 nM.
`COCC(=O)N1CC[C@@H](Oc2cc3ncnc(Nc4cccc(Cl)c4F)c3cc2OC)C1` [Example 5, N-(3-Chloro-2-fluorophenyl)-6-methoxy-7-{[(3R)-1-(methoxyacetyl)pyrrolidin-3-yl]oxy}quinazolin-4-amine] came in with a melting point of 73 to 77 °C. The concentration for half-maximal inhibition (IC50) on EGFR tyrosine kinase stood at 217 nM. In addition, it took 119 nM to reach half-maximal inhibition with KB cells (IC50).
